What was measured:
Assay type in all cases: in vivo
[1] = test system: galium (catchweed bedstraw, Galium aparine); experiment: Test A greenhouse herbicide test, postemergence; details: for Galium plant response rating: 0 is no effect, 100 is complete control
Method in brief: (§1)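 Seedlings in a loam soil and sand mix received formulated compound postemergence at the one- to two-leaf stage. Greenhouse holding lasts approximately 10 d, then injury is scored visually relative to untreated plants, 0 meaning no effect and 100 complete control.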

[2] = test system: blackgrass (Alopecurus myosuroides); experiment: Test A greenhouse herbicide test, postemergence; details: for Blackgrass plant response rating: 0 is no effect, 100 is complete control
Method in brief: as §1

[3] = test system: barnyardgrass (Echinochloa crus-galli); experiment: Test A greenhouse herbicide test, pre- and postemergence
Method in brief: (§2)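 Visual injury ratings, 0 (no effect) to 100 (complete control), versus untreated plants after roughly 10 d in a greenhouse. Compounds, formulated in a surfactant-containing non-phytotoxic solvent, were sprayed on loam–sand soil after sowing (pre) or on one- to two-leaf plants 2–10 cm tall (post).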

[4] = test system: ryegrass, Italian (Italian ryegrass, Lolium multiflorum); experiment: as above
Method in brief: as §2

[5] = test system: wheat (Triticum aestivum); experiment: as above; details: Postemergence; for Wheat plant response rating: 0 is no effect, 100 is complete control
Method in brief: as §2

[6] = test system: pigweed (Amaranthus retroflexus); experiment: as above
Method in brief: as §2

[7] = test system: foxtail, giant (giant foxtail, Setaria faberii); experiment: as above
Method in brief: as §2

kochia (Kochia scoparia) = experiment: as above
Method in brief: as §2

[8] = test system: ragweed (common ragweed, Ambrosia elatior); experiment: as above
Method in brief: as §2

corn (Zea mays) = experiment: as above; details: Postemergence; for Corn plant response rating: 0 is no effect, 100 is complete control
Method in brief: as §2

[9] = test system: barnyardgrass (Echinochloa crus-galli); experiment: Test C greenhouse herbicide test, pre- and postemergence
From the text: Seeds of plant species selected from blackgrass (Alopecurus myosuroides), ryegrass, Italian (Italian ryegrass, Lolium multiflorum), wheat (winter wheat, Triticum aestivum), galium (catchweed bedstraw, Galium aparine), corn (Zea mays), large crabgrass, large (large crabgrass, Digitaria sanguinalis), foxtail, giant (giant foxtail, Setaria faberii), johnsongrass (Sorghum halepense), lambsquarters (Chenopodium album), morningglory (Ipomoea coccinea), nutsedge, yellow (yellow nutsedge, Cyperus esculentus), pigweed (Amaranthus retroflexus), ragweed (common ragweed, Ambrosia elatior), soybean (Glycine max), barnyardgrass (Echinochloa crus-galli), oilseed rape (Brassica napus), waterhemp (common waterhemp, Amaranthus rudis), and velvetleaf (Abutilon theophrasti) were planted into a blend of loam soil and sand and treated preemergence with test chemicals formulated in a non-phytotoxic solvent mixture which included a surfactant.
At the same time, plants selected from these crop and weed species and also chickweed (common chickweed, Stellaria media), kochia (Kochia scoparia), and oat, wild (wild oat, Avena fatua), were planted in pots containing Redi-Earth® planting medium (Scotts Company, 14111 Scottslawn Road, Marysville, Ohio 43041) comprising spaghnum peat moss, vermiculite, wetting agent and starter nutrients and treated with postemergence applications of test chemicals formulated in the same manner. Plants ranged in height from 2 to 18 cm (1- to 4-leaf stage) for postemergence treatments. Treated plants and controls were maintained in a greenhouse for 13 to 15 d, after which time all species were compared to controls and visually evaluated. Plant response ratings, summarized in Table C, are based on a scale of 0 to 100 where 0 is no effect and 100 is complete control. A dash (-) response means no test result.

[10] = 125 g ai/ha, 0 to 100 scale where 0 is no effect and 100 is complete control
[11] = Postemergence, 125 g ai/ha, 0 to 100 scale where 0 is no effect and 100 is complete control
[12] = Postemergence, 500 g ai/ha, 0 to 100 scale, 0 is no effect, 100 is complete control
[13] = Preemergence, 125 g ai/ha, 0 to 100 scale where 0 is no effect and 100 is complete control
[14] = Preemergence, 500 g ai/ha, 0 to 100 scale, 0 no effect, 100 complete control
[15] = Postemergence, 31 g ai/ha, 0 to 100 scale (0 no effect, 100 complete control)
[16] = Postemergence, 125 g ai/ha, scale 0 to 100, 0 is no effect, 100 is complete control
[17] = Postemergence, 250 g ai/ha, scale 0 to 100, 0 no effect, 100 complete control, 13 to 15 d
[18] = Preemergence, 31 g ai/ha, scale 0 to 100, 0 is no effect, 100 is complete control
[19] = Preemergence, 62 g ai/ha, scale 0 to 100, 0 is no effect, 100 is complete control
[20] = Preemergence, 125 g ai/ha, scale 0 to 100, 0 is no effect, 100 is complete control
[21] = Preemergence, 250 g ai/ha, scale 0 to 100 (0 no effect, 100 complete control)
[22] = postemergence, 62 g ai/ha, scale 0 to 100, 0 no effect, 100 complete control
[23] = 125 g ai/ha, 0 to 100 scale, 0 no effect, 100 complete control
[24] = 500 g ai/ha, visual rating after approx. 10 d, 0 to 100 scale (0 no effect, 100 complete control)
[25] = Postemergence, 125 g ai/ha, 0 to 100 scale, 0 no effect, 100 complete control
[26] = Postemergence, 500 g ai/ha, visual rating after approx. 10 d, 0 to 100 scale (0 no effect, 100 complete control)
[27] = Preemergence, 125 g ai/ha, visual injury rating, 0 to 100 scale (0 no effect, 100 complete control), approx. 10 d
[28] = Preemergence, 500 g ai/ha, 0 to 100 scale where 0 is no effect and 100 is complete control

SMILES: Cc1cc(C)c2sc(C)c(-c3c(OC(=O)OC(C)C)c(C)nn(C)c3=O)c2c1 [Compound 67]
- Plant response rating, Galium [1, 10]: 80
- Galium plant response rating ([1]; 500 g ai/ha, 0 to 100 scale): 90
- Plant response rating, Blackgrass [2, 10]: 70
- Blackgrass plant response rating ([2]; 500 g ai/ha, 0 to 100 scale): 80
- Plant response rating, Barnyardgrass [3, 11]: 20
- Barnyardgrass plant response rating [3, 12]: 70
- Barnyardgrass plant response rating [3, 13]: 30
- Plant response rating, Barnyardgrass [3, 14]: 90
- Plant response rating, Ryegrass, Italian [4, 11]: 70
- Ryegrass, Italian plant response rating [4, 12]: 90
- Ryegrass, Italian plant response rating [4, 13]: 90
- Plant response rating, Ryegrass, Italian [4, 14]: 100
- Plant response rating, Wheat [5, 10]: 0
- Wheat plant response rating ([5]; 500 g ai/ha, 0 to 100 scale): 0
- Plant response rating, Pigweed [6, 11]: 20
- Pigweed plant response rating [6, 12]: 20
- Pigweed plant response rating [6, 13]: 90
- Plant response rating, Pigweed [6, 14]: 100
- Plant response rating, Foxtail, Giant [7, 11]: 80
- Foxtail, Giant plant response rating [7, 12]: 90
- Foxtail, Giant plant response rating [7, 13]: 80
- Plant response rating, Foxtail, Giant [7, 14]: 100
- Plant response rating, Kochia (kochia (Kochia scoparia); [11]): 20
- Kochia plant response rating (kochia (Kochia scoparia); [12]): 30
- Kochia plant response rating (kochia (Kochia scoparia); [13]): 20
- Plant response rating, Kochia (kochia (Kochia scoparia); [14]): 20
- Plant response rating, Ragweed [8, 11]: 50
- Ragweed plant response rating [8, 12]: 70
- Ragweed plant response rating [8, 13]: 80
- Plant response rating, Ragweed [8, 14]: 80
- Plant response rating, Corn (corn (Zea mays); [10]): 0
- Corn plant response rating (corn (Zea mays); 500 g ai/ha, 0 to 100 scale): 0
- Barnyardgrass plant response rating [9, 15]: 25
- Plant response rating, Barnyardgrass [9, 16]: 35
- Plant response rating, Barnyardgrass [9, 17]: 45
- Plant response rating, Barnyardgrass [9, 18]: 5
- Plant response rating, Barnyardgrass [9, 19]: 20
- Plant response rating, Barnyardgrass [9, 20]: 40
- Barnyardgrass plant response rating [9, 21]: 80
- Barnyardgrass plant response rating [9, 22]: 35

SMILES: CC(=O)Oc1c(C)nn(C)c(=O)c1-c1c(C)cc(C)c2ccccc12 [Compound 153]
- Plant response rating, Galium [1, 23]: 100
- Plant response rating, Galium [1, 24]: 100
- Plant response rating, Blackgrass [2, 23]: 90
- Plant response rating, Blackgrass [2, 24]: 90
- Plant response rating, Barnyardgrass [3, 25]: 90
- Plant response rating, Barnyardgrass [3, 26]: 90
- Plant response rating, Barnyardgrass [3, 27]: 100
- Plant response rating, Barnyardgrass [3, 28]: 100
- Plant response rating, Ryegrass, Italian [4, 25]: 100
- Plant response rating, Ryegrass, Italian [4, 26]: 100
- Plant response rating, Ryegrass, Italian [4, 27]: 100
- Plant response rating, Ryegrass, Italian [4, 28]: 100
- Plant response rating, Wheat [5, 23]: 0
- Plant response rating, Wheat [5, 24]: 30
- Plant response rating, Pigweed [6, 25]: 80
- Plant response rating, Pigweed [6, 26]: 100
- Plant response rating, Pigweed [6, 27]: 100
- Plant response rating, Pigweed [6, 28]: 100
- Plant response rating, Foxtail, Giant [7, 25]: 90
- Plant response rating, Foxtail, Giant [7, 26]: 90
- Plant response rating, Foxtail, Giant [7, 27]: 100
- Plant response rating, Foxtail, Giant [7, 28]: 100
- Plant response rating, Kochia (kochia (Kochia scoparia); [25]): 40
- Plant response rating, Kochia (kochia (Kochia scoparia); [26]): 90
- Plant response rating, Kochia (kochia (Kochia scoparia); [27]): 80
- Plant response rating, Kochia (kochia (Kochia scoparia); [28]): 90
- Plant response rating, Ragweed [8, 25]: 80
- Plant response rating, Ragweed [8, 26]: 90
- Plant response rating, Ragweed [8, 27]: 80
- Plant response rating, Ragweed [8, 28]: 90
- Plant response rating, Corn (corn (Zea mays); [23]): 0
- Plant response rating, Corn (corn (Zea mays); [24]): 80
- Plant response rating, Barnyardgrass ([9]; Postemergence, 31 g ai/ha, scale 0 to 100 (0 no effect, 100 complete control)): 40
- Barnyardgrass plant response rating ([9]; Postemergence, 62 g ai/ha, 0 to 100 scale (0 no effect, 100 complete control)): 60
- Plant response rating, Barnyardgrass [9, 16]: 70
- Plant response rating, Barnyardgrass [9, 17]: 90
- Plant response rating, Barnyardgrass [9, 18]: 85
- Plant response rating, Barnyardgrass [9, 19]: 100
- Plant response rating, Barnyardgrass [9, 20]: 100
- Barnyardgrass plant response rating [9, 21]: 100

SMILES: C#CCOC(=O)Oc1c(C)nn(C)c(=O)c1-c1c(C)sc2ccc(C)cc12 [Compound 87]
- Plant response rating, Galium [1, 10]: 90
- Galium plant response rating ([1]; 500 g ai/ha, 0 to 100 scale): 90
- Plant response rating, Blackgrass [2, 10]: 80
- Blackgrass plant response rating ([2]; 500 g ai/ha, 0 to 100 scale): 80
- Plant response rating, Barnyardgrass [3, 11]: 40
- Barnyardgrass plant response rating [3, 12]: 80
- Barnyardgrass plant response rating [3, 13]: 50
- Plant response rating, Barnyardgrass [3, 28]: 80
- Plant response rating, Ryegrass, Italian [4, 11]: 80
- Ryegrass, Italian plant response rating [4, 12]: 80
- Ryegrass, Italian plant response rating [4, 13]: 90
- Plant response rating, Ryegrass, Italian [4, 28]: 100
- Plant response rating, Wheat [5, 10]: 0
- Wheat plant response rating ([5]; 500 g ai/ha, 0 to 100 scale): 0
- Plant response rating, Pigweed [6, 11]: 80
- Pigweed plant response rating [6, 12]: 90
- Pigweed plant response rating [6, 13]: 100
- Plant response rating, Pigweed [6, 28]: 100
- Plant response rating, Foxtail, Giant [7, 11]: 70
- Foxtail, Giant plant response rating [7, 12]: 80
- Foxtail, Giant plant response rating [7, 13]: 80
- Plant response rating, Foxtail, Giant [7, 28]: 100
- Plant response rating, Kochia (kochia (Kochia scoparia); [11]): 90
- Kochia plant response rating (kochia (Kochia scoparia); [12]): 90
- Kochia plant response rating (kochia (Kochia scoparia); [13]): 80
- Plant response rating, Kochia (kochia (Kochia scoparia); [28]): 90
- Plant response rating, Ragweed [8, 11]: 80
- Ragweed plant response rating [8, 12]: 90
- Ragweed plant response rating [8, 13]: 70
- Plant response rating, Ragweed [8, 28]: 80
- Plant response rating, Corn (corn (Zea mays); [10]): 0
- Corn plant response rating (corn (Zea mays); 500 g ai/ha, 0 to 100 scale): 0
- Barnyardgrass plant response rating [9, 15]: 25
- Plant response rating, Barnyardgrass [9, 16]: 35
- Plant response rating, Barnyardgrass [9, 17]: 45
- Plant response rating, Barnyardgrass [9, 18]: 5
- Plant response rating, Barnyardgrass [9, 19]: 35
- Plant response rating, Barnyardgrass [9, 20]: 65
- Barnyardgrass plant response rating [9, 21]: 85
- Barnyardgrass plant response rating [9, 22]: 25
